Laboratory results published in patent US4728641A, “Ganglioside derivatives” (Burroughs Wellcome Co., priority 1983, dated 1988).

How the values were obtained:
Plasmodium berghei = assay: In vivo activity against Plasmodium berghei protozoa in mice; set-up: species or system Swiss male albino mice (Charles River CD1); conditions: GM1 P (Example 1) 5 mg/kg s.c. 24 and 2 hours before infection, pyrimethamine 1 mg/kg s.c. days 0, 1 and 2, or both
Protocol: 40 Swiss male albino mice (Charles River CD1) weighing 22±1 g were randomly divided into groups of 10 and injected intraperitoneally with 0.1 ml/10 g of citrated blood of 6-day parasitised mice which had been diluted 1:1000 (v/v) with saline to obtain 1.58×10^6 P. berghei I.S.S./ml. The control group (1) were injected with saline, group 2 with ganglioside GM1 P prepared by the method of Example 1 (5 mg/kg s.c. in saline), group 3 with the known anti-protozoal agent pyrimethamine (1 mg/kg s.c. in CMC 0.25% in water, w/v), and group 4 with both GM1 P and pyrimethamine at the doses stated above. The dose volume was 0.25 ml/10 g. The GM1 P was administered 24 hours and 2 hours before infection (Day 0) and the pyrimethamine on days 0,1 and 2.

[1] = system: Candida albicans (strain CN 7996); assay: In vivo activity against Candida albicans infection in mice; set-up: species or system Swiss male albino mice (Charles River CD1); conditions: cyclophosphamide 50 mg/kg i.v. 96 hours before infection, GM1 P 10 mg/kg s.c. 96 and 24 hours before infection, or both
Protocol: 53 Swiss male albino mice (Charles River CD1) weighing 23±1 g were randomly divided into […] groups of 10, 14, 14 and 15 animals each (groups 1 to 4 respectively). Group 1 animals were injected with saline as a control group; Group 2 were injected with cyclophosphamide 50 mg/kg (0.2 ml/mouse) intravenously 96 hours before infection; Group 3 with cyclophosphamide 50 mg/kg (0.2 ml/mouse) intravenously 96 hours before infection and with GM1 P 10 mg/kg (0.25 ml/10 g) subcutaneously at 96 and 24 hours before infection; and Group 4 with GM1 P 10 mg/kg (0.25 ml/10 g) subcutaneously 96 and 24 hours before infection. The mice were then injected intravenously with 0.225 ml/mouse of an 18 hour culture of Sabouraud glucose broth containing 1.204×10^7 Candida albicans cells/ml (strain CN 7996).

SMILES	Mortality (%) Day 9 (Plasmodium berghei; Day 9) [%]	Mortality (%) Day 13 (Plasmodium berghei; Day 13) [%]	Number alive at Day 23 ([1]; Day 23)	Mean survival time [1] [days]
CCc1nc(N)nc(N)c1-c1ccc(Cl)cc1 [pyrimethamine]	50	90	–	–
O=P1(N(CCCl)CCCl)NCCCO1 (stereo not shown) [cyclophosphamide]	–	–	0	1.21
